Data set [1] in a line: Cell viability assay (AlamarBlue). Type of data set: cell-based. The note with it: human, HepAD38 cells in the presence of 0.3 μg/ml tetracycline, six days incubation. The procedure:
Using the AlamarBlue viability assay cytotoxicity was evaluated in HepAD38 cells in the presence of 0.3 μg/ml tetracycline, which blocks the expression of the HBV genome. Assay condition and plate layout were in analogy to the anti-HBV assay, however other controls were used. On each assay plate six wells containing untreated HepAD38 cells were used as the 100% viability control, and six wells filled with assay medium only were used as 0% viability control. In addition, a geometric concentration series of cycloheximide starting at 60 μM final assay concentration was used as positive control in each experiment. After six days incubation period Alamar Blue Presto cell viability reagent (ThermoFisher, Dreieich) was added in 1/11 dilution to each well of the assay plate. After an incubation for 30 to 45 min at 37° C. the fluorescence signal, which is proportional to the number of living cells, was read using a Tecan Spectrafluor Plus plate reader with an excitation filter 550 nm and emission filter 595 nm, respectively. […] Mean EC50 and CC50 values were used to calculate the selectivity index (SI=CC50/EC50) for each test compound.
For orientation: The colour change of resazurin is a common sign of viable cells or microbes.

In data set [2] the test system is HBV. Briefly: Determination of HBV DNA from the supernatants of HepAD38 cells (anti-HBV activity). The note with it: Hepatitis B virus, HePAD38, 144 h, read-out: Cell Activity.

Some results are limits rather than exact numbers.

For orientation: CC50 means the concentration that lowers cell viability or growth by half. Take `COCC1(N(C)C(=O)c2cnn3c2CN(C(=O)Nc2ccc(F)c(Cl)c2)C(C)C3)CC1` (stereo not shown) [Example 1, N5-(3-chloro-4-fluorophenyl)-N3-[1-(methoxymethyl)cyclopropyl]-N3,6-dimethyl-4H,5H,6H,7H-pyrazolo[1,5-a]pyrazine-3,5-dicarboxamide]: in data set [1], the CC50 at 6 days is greater than 10 µM. Also, the EC50 in data set [2] is less than 1 µM.

With `CC(C)OCC1(N(C)C(=O)c2cnn3c2CN(C(=O)Nc2ccc(F)c(Cl)c2)CC3)CC1` [Example 2, N5-(3-chloro-4-fluorophenyl)-N3-methyl-N3-{1-[(propan-2-yloxy)methyl]cyclopropyl}-4H,5H,6H,7H-pyrazolo[1,5-a]pyrazine-3,5-dicarboxamide], the 50% cytotoxic concentration (CC50) at 6 days in data set [1] was greater than 10 µM. Also, the EC50 in data set [2] was less than 1 µM.

For `CCOCC1(N(C)C(=O)c2cnn3c2CN(C(=O)Nc2ccc(F)c(Cl)c2)CC3)CC1` [Example 3, N5-(3-chloro-4-fluorophenyl)-N3-[1-(ethoxymethyl)cyclopropyl]-N3-methyl-4H,5H,6H,7H-pyrazolo[1,5-a]pyrazine-3,5-dicarboxamide], the 50% cytotoxic concentration (CC50) at 6 days in data set [1] was greater than 10 µM. The EC50 in data set [2] was less than 1 µM.

As for `CN(C(=O)c1cnn2c1CN(C(=O)Nc1ccc(F)c(Cl)c1)CC2)C1(COC(F)F)CC1` [Example 4, N5-(3-chloro-4-fluorophenyl)-N3-{1-[(difluoromethoxy)methyl]cyclopropyl}-N3-methyl-4H,5H,6H,7H-pyrazolo[1,5-a]pyrazine-3,5-dicarboxamide], the CC50 at 6 days in data set [1] was greater than 10 µM. For the same compound, in data set [2], the EC50 was less than 1 µM.

Turning to `O=C(Nc1ccc(F)c(Cl)c1)N1CCn2ncc(C(=O)N3CC(F)(F)CC34CC4)c2C1` [Example 5, N-(3-chloro-4-fluorophenyl)-3-{6,6-difluoro-4-azaspiro[2.4]heptane-4-carbonyl}-4H,5H,6H,7H-pyrazolo[1,5-a]pyrazine-5-carboxamide], the CC50 at 6 days in data set [1] is greater than 10 µM. Also, in data set [2], the EC50 is less than 1 µM.

As for `CC1Cn2ncc(C(=O)N(C)C3(COC(F)F)CC3)c2CN1C(=O)Nc1ccc(F)c(Cl)c1` (stereo not shown) [Example 6, N5-(3-chloro-4-fluorophenyl)-N3-{1-[(difluoromethoxy)methyl]cyclopropyl}-N3,6-dimethyl-4H,5H,6H,7H-pyrazolo[1,5-a]pyrazine-3,5-dicarboxamide], the CC50 at 6 days in data set [1] is greater than 10 µM. For the same compound, in data set [2], the EC50 was less than 1 µM.

Take `CN(C(=O)c1cnn2c1CN(C(=O)Nc1ccc(F)c(Cl)c1)CC2)C1(c2ccncc2)CC1` [Example 7, N5-(3-chloro-4-fluorophenyl)-N3-methyl-N3-[1-(pyridin-4-yl)cyclopropyl]-4H,5H,6H,7H-pyrazolo[1,5-a]pyrazine-3,5-dicarboxamide]: the CC50 at 6 days in data set [1] was greater than 10 µM. Moreover, in data set [2], the EC50 is less than 1 µM.

Regarding `CN(C(=O)c1cnn2c1CN(C(=O)Nc1ccc(F)c(Cl)c1)CC2)C1(c2ncccn2)CC1` [Example 8, N5-(3-chloro-4-fluorophenyl)-N3-methyl-N3-[1-(pyrimidin-2-yl)cyclopropyl]-4H,5H,6H,7H-pyrazolo[1,5-a]pyrazine-3,5-dicarboxamide], in data set [1], the CC50 at 6 days was greater than 10 µM. The EC50 in data set [2] was less than 1 µM.

`CN(C(=O)c1cnn2c1CN(C(=O)Nc1ccc(F)c(Cl)c1)CC2)C1(CO)CC1` [Example 9, N5-(3-chloro-4-fluorophenyl)-N3-[1-(hydroxymethyl)cyclopropyl]-N3-methyl-4H,5H,6H,7H-pyrazolo[1,5-a]pyrazine-3,5-dicarboxamide]: the CC50 at 6 days in data set [1] is greater than 10 µM. Further, in data set [2], the EC50 was less than 1 µM.

Regarding `O=C(Nc1ccc(F)c(Cl)c1)N1CCn2ncc(C(=O)N(CCO)C3(CO)CC3)c2C1` [Example 10, N5-(3-chloro-4-fluorophenyl)-N3-(2-hydroxyethyl)-N3-[1-(hydroxymethyl)cyclopropyl]-4H,5H,6H,7H-pyrazol [1,5-a]pyrazine-3,5-dicarboxamide], the 50% cytotoxic concentration (CC50) at 6 days in data set [1] was greater than 10 µM. Besides, the EC50 in data set [2] was less than 1 µM.

Turning to `O=C(Nc1ccc(F)c(Cl)c1)N1CCn2ncc(C(=O)N3CCCOCC34CC4)c2C1` [Example 11, N-(3-chloro-4-fluorophenyl) -3-{8-oxa-4-azaspiro[2.6]nonane-4-carbonyl}-4H,5H,6H,7H-pyrazolo[1,5-a]pyrazine-5-carboxamide], the CC50 at 6 days in data set [1] was greater than 10 µM. Further, the EC50 in data set [2] is less than 1 µM.

Consider `O=C(Nc1ccc(F)c(Cl)c1)N1CCn2ncc(C(=O)N3CCOCCC34CC4)c2C1` [Example 12, N-(3-chloro-4-fluorophenyl)-3-{7-oxa-4-azaspiro[2.6]nonane-4-carbonyl}-4H,5H,6H,7H-pyrazolo[1,5-a]pyrazine-5-carboxamide], for which the 50% cytotoxic concentration (CC50) at 6 days in data set [1] was greater than 10 µM. In addition, in data set [2], the EC50 is less than 1 µM.

`CN(C(=O)c1cnn2c1CN(C(=O)Nc1ccc(F)c(Cl)c1)CC2)C1(CNCC(F)(F)F)CC1` [Example 13, N5-(3-chloro-4-fluorophenyl)-N3-methyl-N3-(1-{[(2,2,2-trifluoroethyl)amino]methyl}cyclopropyl)-4H,5H,6H,7H-pyrazolo[1,5-a]pyrazine-3,5-dicarboxamide]: in data set [1], the CC50 at 6 days was greater than 10 µM. For the same compound, the EC50 in data set [2] is less than 1 µM.

On to `CN(C(=O)c1cnn2c1CN(C(=O)Nc1ccc(F)c(Cl)c1)CC2)C1(CCOC(F)F)CCC1` [Example 14, N5-(3-chloro-4-fluorophenyl)-N3-{1-[2-(difluoromethoxy)ethyl]cyclobutyl}-N3-methyl-4H,5H,6H,7H-pyrazolo[1,5-a]pyrazine-3,5-dicarboxamide], for which the CC50 at 6 days in data set [1] was greater than 10 µM. Besides, the EC50 in data set [2] is less than 1 µM.

Consider `CN(C(=O)c1cnn2c1CN(C(=O)Nc1ccc(F)c(Cl)c1)CC2)C1(CCOC(F)F)CCCC1` [Example 15, N5-(3-chloro-4-fluorophenyl) -N3-{1-[2-(difluoromethoxy)ethyl]cyclopentyl}-N3-methyl-4H,5H,6H,7H -pyrazolo [1,5-a]pyrazine-3,5-dicarboxamide], for which, in data set [1], the CC50 at 6 days is greater than 10 µM. For the same compound, the EC50 in data set [2] was less than 1 µM.

With `CN(C(=O)c1cnn2c1CN(C(=O)Nc1ccc(F)c(Cl)c1)CC2)C1(CCOC(F)F)CCOCC1` [Example 16, N5-(3-chloro-4-fluorophenyl)-N3-{4-[2-(difluoromethoxy)ethyl]oxan-4-yl}-N3-methyl-4H,5H,6H,7H-pyrazolo[1,5-a]pyrazine-3,5-dicarboxamide], the CC50 at 6 days in data set [1] is greater than 10 µM. Moreover, the EC50 in data set [2] is less than 1 µM.

Turning to `CC1Cn2ncc(C(=O)N(C)C3CC3)c2CN1C(=O)Nc1ccc(F)c(Cl)c1` (stereo not shown) [Example 17, N5-(3-chloro-4-fluorophenyl)-N3-cyclopropyl-N3,6-dimethyl-4H,5H,6H,7H -pyrazolo[1,5-a]pyrazine-3,5-dicarboxamide], the CC50 at 6 days in data set [1] was greater than 10 µM. The EC50 in data set [2] is less than 1 µM.

The record behind these values is patent publication US20210355129A1, “NOVEL UREA 6,7-DIHYDRO-4H-PYRAZOLO[1,5-A]PYRAZINES ACTIVE AGAINST THE HEPATITIS B VIRUS (HBV)” (AICURIS GMBH & CO. KG, priority 2018, published 2021).
